Counter-ions that a name gives are not always drawn.
In the case of COc1ccc(N2CC(=O)NS2(=O)=O)c(OC)c1.[K], the melting point is reported as > 260 °C.
With CCn1c(C)nc2cc(CN3CC(=O)NS3(=O)=O)ccc21 (as salt: TFA) [Example 11, 5-(1-Ethyl-2-methyl-1H-benzoimidazol-5-ylmethyl)-1,1-dioxo-1-1,2,5-thiadiazolidin-3-one] the melting point was 255 to 265 °C.
Work on O=C1CN(Cc2cccc(I)c2)S(=O)(=O)N1 [Example 4, 5-(3-Iodobenzyl)-1,1-dioxo-1,2,5-thiadiazolidin-3-one] yielded a melting point of 101 to 103 °C.
In the case of CCOC(=O)C(Cc1ccc(CN2CC(=O)NS2(=O)=O)cc1)(NC(C)=O)C(=O)OCC [Example 10-23, 2-Acetylamino-2-[4-(1,1,4-trioxo-1,2,5-thiadiazolidin-2-ylmethyl)-benzyl]-malonic acid diethyl ester], the melting point is reported as 197 °C.
In the case of Cc1nc2cc(CN3CC(=O)NS3(=O)=O)ccc2n1CCC(C)C [Example 12, 5-[2-Methyl-1-(3-methyl-butyl)-1H-benzoimidazol-5-ylmethyl]-1,1-dioxo-1-1,2,5-thiadiazolidin-3-one], the melting point is reported as 70 to 75 °C.
Work on Cc1cc(OCC(=O)NCc2ccccc2)ccc1N1CC(=O)NS1(=O)=O [Example 43, N-Benzyl-2-[3-methyl-4-(1,1,4-trioxo-[1,2,5]thiadiazolidin-2-yl)-phenoxy]-acetamide] yielded a melting point of 70 to 90 °C.
O=C1CN(c2ccc(CC3NC(=O)c4ccccc4NC3=O)cc2O)S(=O)(=O)N1 (centres unmarked) [Example 44, 3-[3-Hydroxy-4-(1,1,4-trioxo-[1,2,5]thiadiazolidin-2-yl)-benzyl]-3,4-dihydro-1H-benzo[1,4]diazepine-2,5-dione] showed a melting point of 180 °C.
With O=C1CN(c2ccc(I)cc2)S(=O)(=O)N1 [Example 45, 5-(4-Iodo-phenyl)-1,1-dioxo-1,2,5-thiadiazolidin-3-one] the melting point was 191 to 193 °C.

Reference: US20040023974A1, “Cyclic sulfamide derivatives and methods of use” (priority 2002, published 2004)
